Reference: patent US20260262643A1, “HERBICIDAL BENZOXAZINES” (FMC CORPORATION, priority 2022, published 2026)

What was measured:
wheat [1] = experiment: Test C preemergence; assay type: in vivo, Triticum aestivum
Summary of the method: (§1)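 Visual injury ratings on a 0–100 scale (100 = complete control) were made against untreated controls 10 days after treatment in the greenhouse. Compounds, formulated with surfactant in non-phytotoxic solvent, were sprayed on soil preemergence or onto one- to two-leaf plants 2–10 cm tall postemergence.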

barnyardgrass [2] = experiment: Test C preemergence; assay type: in vivo, Echinochloa crusgalli
Summary of the method: as §1

corn [3] = experiment: Test C preemergence; assay type: in vivo, Zea mays
Summary of the method: as §1

kochia [4] = experiment: Test C preemergence; assay type: in vivo, Bassia scoparia
Summary of the method: as §1

wheat [5] = experiment: Test C postemergence; assay type: in vivo, Triticum aestivum; details: 10 days, 0 to 100 scale (0 no effect, 100 complete control)
Summary of the method: as §1

galium = experiment: Test C postemergence; assay type: in vivo, Galium aparine; details: 10 days, 0 to 100 scale (0 no effect, 100 complete control)
Summary of the method: as §1

ryegrass, Italian [6] = experiment: Test C postemergence; assay type: in vivo, Lolium multiflorum; details: 10 days, 0 to 100 scale (0 no effect, 100 complete control)
Summary of the method: as §1

green foxtail [7] = experiment: Test C postemergence; assay type: in vivo, Setaria viridis; details: 10 days, 0 to 100 scale (0 no effect, 100 complete control)
Summary of the method: as §1

ragweed [8] = experiment: Test C preemergence; assay type: in vivo, Ambrosia artemisiifolia
Summary of the method: as §1

oat, wild [9] = experiment: Test C postemergence; assay type: in vivo, Avena fatua; details: 10 days, 0 to 100 scale (0 no effect, 100 complete control)
Summary of the method: as §1

green foxtail [10] = experiment: Test C preemergence; assay type: in vivo, Setaria viridis
Summary of the method: as §1

ragweed [11] = experiment: Test C postemergence; assay type: in vivo, Ambrosia artemisiifolia; details: 10 days, 0 to 100 scale (0 no effect, 100 complete control)
Summary of the method: as §1

corn [12] = experiment: Test C postemergence; assay type: in vivo, Zea mays; details: 10 days, 0 to 100 scale (0 no effect, 100 complete control)
Summary of the method: as §1

oat, wild [13] = experiment: Test C preemergence; assay type: in vivo, Avena fatua
Summary of the method: as §1

barnyardgrass [14] = experiment: Test D flooded paddy test; assay type: in vivo, Echinochloa crus-galli; details: 250 g ai/ha, applied to paddy water, visual rating after 13 to 14 days, scale 0 to 100 (0 no effect, 100 complete control)
Summary of the method: (§2)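 Compounds go straight into paddy water over 2-leaf plants in pots flooded to 3 cm. Greenhouse holding lasts 13 to 14 days. Injury is scored by eye against controls from 0 (none) to 100 (complete control).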

kochia [15] = experiment: Test C postemergence; assay type: in vivo, Bassia scoparia; details: 10 days, 0 to 100 scale (0 no effect, 100 complete control)
Summary of the method: as §1

soybean [16] = experiment: Test C preemergence; assay type: in vivo, Glycine max
Summary of the method: as §1

horseweed = experiment: Test C postemergence; assay type: in vivo, Erigeron canadensis; details: 10 days, 0 to 100 scale (0 no effect, 100 complete control)
Summary of the method: as §1

sedge, umbrella = experiment: Test D flooded paddy test; assay type: in vivo, Cyperus difformis; details: 250 g ai/ha, applied to paddy water, visual rating after 13 to 14 days, scale 0 to 100 (0 no effect, 100 complete control)
Summary of the method: as §2

barnyardgrass [17] = experiment: Test C postemergence; assay type: in vivo, Echinochloa crusgalli; details: 10 days, 0 to 100 scale (0 no effect, 100 complete control)
Summary of the method: as §1

ryegrass, Italian [18] = experiment: Test C preemergence; assay type: in vivo, Lolium multiflorum
Summary of the method: as §1

rice = experiment: Test D flooded paddy test; assay type: in vivo, Oryza sativa; details: 250 g ai/ha, applied to paddy water, visual rating after 13 to 14 days, scale 0 to 100 (0 no effect, 100 complete control)
Summary of the method: as §2

ducksalad = experiment: Test D flooded paddy test; assay type: in vivo, Heteranthera limosa; details: 250 g ai/ha, applied to paddy water, visual rating after 13 to 14 days, scale 0 to 100 (0 no effect, 100 complete control)
Summary of the method: as §2

soybean [19] = experiment: Test C postemergence; assay type: in vivo, Glycine max; details: 10 days, 0 to 100 scale (0 no effect, 100 complete control)
Summary of the method: as §1

pigweed, palmer [20] = experiment: Test C postemergence; assay type: in vivo, Amaranthus palmeri; details: 10 days, 0 to 100 scale (0 no effect, 100 complete control)
Summary of the method: as §1

blackgrass [21] = experiment: Test C postemergence; assay type: in vivo, Alopecurus myosuroides; details: 10 days, 0 to 100 scale (0 no effect, 100 complete control)
Summary of the method: as §1

blackgrass [22] = experiment: Test C preemergence; assay type: in vivo, Alopecurus myosuroides
Summary of the method: as §1

pigweed, palmer [23] = experiment: Test C preemergence; assay type: in vivo, Amaranthus palmeri
Summary of the method: as §1

[24] = 500 g ai/ha, preemergence, 0 to 100 scale (0 no effect, 100 complete control)
[25] = Preemergence, 125 g ai/ha, 0 to 100 scale, 0 no effect, 100 complete control

Cc1ccc(-n2cnc(C(C)(C)C)n2)cc1C(=O)N1CC(C(F)(F)F)Oc2c(Cl)cccc21 (stereo not shown) [Compound 350]
Wheat plant response rating (wheat [1]; [24]): 30 | Plant response rating, Wheat (wheat [1]; [25]): 30 | Barnyardgrass plant response rating (barnyardgrass [2]; [24]): 100 | Plant response rating, Barnyardgrass (barnyardgrass [2]; [25]): 50 | Corn plant response rating (corn [3]; [24]): 0 | Plant response rating, Corn (corn [3]; [25]): 0 | Kochia plant response rating (kochia [4]; [24]): 80 | Plant response rating, Kochia (kochia [4]; [25]): 50 | Plant response rating, Wheat (wheat [5]; 500 g ai/ha, postemergence): 10 | Plant response rating, Wheat (wheat [5]; Postemergence, 125 g ai/ha): 10 | Plant response rating, Galium (galium; 500 g ai/ha, postemergence): 100 | Plant response rating, Galium (galium; Postemergence, 125 g ai/ha): 80 | Plant response rating, Ryegrass, Italian (ryegrass, Italian [6]; 500 g ai/ha, postemergence): 30 | Plant response rating, Ryegrass, Italian (ryegrass, Italian [6]; Postemergence, 125 g ai/ha): 10 | Plant response rating, Foxtail, Green (green foxtail [7]; 500 g ai/ha, postemergence): 80 | Plant response rating, Foxtail, Green (green foxtail [7]; Postemergence, 125 g ai/ha): 30 | Ragweed plant response rating (ragweed [8]; [24]): 60 | Plant response rating, Ragweed (ragweed [8]; [25]): 20 | Plant response rating, Oat, Wild (oat, wild [9]; 500 g ai/ha, postemergence): 10 | Plant response rating, Oat, Wild (oat, wild [9]; Postemergence, 125 g ai/ha): 0 | Foxtail, Green plant response rating (green foxtail [10]; [24]): 100 | Plant response rating, Foxtail, Green (green foxtail [10]; [25]): 100 | Plant response rating, Ragweed (ragweed [11]; 500 g ai/ha, postemergence): 50 | Plant response rating, Ragweed (ragweed [11]; Postemergence, 125 g ai/ha): 30 | Plant response rating, Corn (corn [12]; 500 g ai/ha, postemergence): 20 | Plant response rating, Corn (corn [12]; Postemergence, 125 g ai/ha): 10 | Oat, Wild plant response rating (oat, wild [13]; [24]): 50 | Plant response rating, Oat, Wild (oat, wild [13]; [25]): 30 | Plant response rating, Barnyardgrass (Flood) (barnyardgrass [14]): 0 | Plant response rating, Kochia (kochia [15]; 500 g ai/ha, postemergence): 90 | Plant response rating, Kochia (kochia [15]; Postemergence, 125 g ai/ha): 70 | Soybean plant response rating (soybean [16]; [24]): 90 | Plant response rating, Soybean (soybean [16]; [25]): 90 | Plant response rating, Horseweed (horseweed; 500 g ai/ha, postemergence): 40 | Plant response rating, Horseweed (horseweed; Postemergence, 125 g ai/ha): 40 | Plant response rating, Sedge, Umbrella (Flood) (sedge, umbrella): 0 | Plant response rating, Barnyardgrass (barnyardgrass [17]; 500 g ai/ha, postemergence): 30 | Plant response rating, Barnyardgrass (barnyardgrass [17]; Postemergence, 125 g ai/ha): 10 | Ryegrass, Italian plant response rating (ryegrass, Italian [18]; [24]): 100 | Plant response rating, Ryegrass, Italian (ryegrass, Italian [18]; [25]): 100 | Plant response rating, Rice (Flood) (rice): 0 | Plant response rating, Ducksalad (Flood) (ducksalad): 0 | Plant response rating, Soybean (soybean [19]; 500 g ai/ha, postemergence): 100 | Plant response rating, Soybean (soybean [19]; Postemergence, 125 g ai/ha): 100 | Plant response rating, Pigweed, Palmer (pigweed, palmer [20]; 500 g ai/ha, postemergence): 100 | Plant response rating, Pigweed, Palmer (pigweed, palmer [20]; Postemergence, 125 g ai/ha): 100 | Plant response rating, Blackgrass (blackgrass [21]; 500 g ai/ha, postemergence): 20 | Plant response rating, Blackgrass (blackgrass [21]; Postemergence, 125 g ai/ha): 10 | Blackgrass plant response rating (blackgrass [22]; [24]): 50 | Plant response rating, Blackgrass (blackgrass [22]; [25]): 20 | Pigweed, Palmer plant response rating (pigweed, palmer [23]; [24]): 100 | Plant response rating, Pigweed, Palmer (pigweed, palmer [23]; [25]): 100
